Reference: PubChem BioAssay AID434940 (The Scripps Research Institute Molecular Screening Center, 2010)
Active and inactive are the calls of the source.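 Rule for the calls: active = STAT3 activation with EC50 of 10 µM or lower; inactive = EC50 above 10 µM or none.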

The molecules below were run on U3A STAT3-luciferase reporter, IL-6 stimulated, luminescence (assay: STAT3 activators in IL-6-treated reporter cells, late-stage follow-up, counter-screen for STAT1 activator project, U3A cells, luminescence, dose response, powder samples (AID 434940)).
With `Cc1ccc(C(=O)Nc2nc3ccccc3s2)s1` the EC50 was > 55.7 µM (inactive).
In the case of `COc1ccc2[nH]c3c(c2c1)CCn1c-3nc2ccccc2c1=O`, the EC50 is reported as > 18.6 µM (inactive).
With `O=C(Nc1nc2ccccc2s1)c1cc2ccccc2s1` the EC50 was > 55.7 µM (inactive).
`CCN(CC)c1ccc2cc(C(=O)Nc3ccccn3)c(=O)oc2c1` was tested, and the EC50 was 0.804 µM.
`CC(=O)NC(=S)Nc1sc2c(c1C#N)CCCCC2` was tested, and the EC50 was > 55.7 µM (inactive).
In the case of `Cc1cc(-c2ccncc2)n2ncc(-c3ccccc3)c2n1`, the EC50 is reported as > 55.7 µM (inactive).
In the case of `Cc1nnc(SCC(=O)Nc2ccc(-c3nc4ccccc4s3)cc2)s1`, the EC50 is reported as > 55.7 µM (inactive).
`O=C(/C=C/Nc1ccccc1F)c1ccc(Br)cc1` was tested, and the EC50 was > 55.7 µM (inactive).
For `COc1ccc(-c2csc(N3C(=O)CNC3=S)n2)cc1`, the EC50 was > 55.7 µM (inactive).
For `COc1ccc(-c2cc(C)nc3c(-c4ccccc4)cnn23)cc1`, the EC50 was > 55.7 µM (inactive).
